Experimental findings from PubChem BioAssay AID1996 are described below.

Values after ≈ are worked out from the molar mass of the structure shown. Bounds are passed on as bounds.

For the series the following is noted: buffer; pH 7.4; 200.0 µM.
`CC(OC(=O)c1cccc([N+](=O)[O-])c1)C(=O)NCc1ccc2c(c1)OCO2` (stereo unspecified): the kinetic solubility amounted to 22.4 µg/mL (≈ 60.2 µM).

In turn, `O=c1[nH]c2ccc(S(=O)(=O)Nc3ccccc3O)cc2[nH]1` yielded a solubility (kinetic) of over 45.8 µg/mL.

As to `CCOC(=O)c1sc(CS(=O)(=O)c2ccc(Cl)cc2)nc1C`, the kinetic solubility was determined as 6.1 µg/mL (≈ 17 µM).

The compound `CCOc1ccc(NC(=O)c2nc(SCC)ncc2Cl)cc1` came in with a solubility (kinetic) of under 0.2 µg/mL.

On to `C/C(N)=C(/C#N)C(=O)COC(=O)c1cc2c(s1)CCC(C)C2` (stereo unspecified), for which the solubility (kinetic) was 4.7 µg/mL (≈ 14.8 µM). Then `COc1ccc2nc(C)cc(SCC(=O)N3CCCCC3)c2c1`, with over 49.6 µg/mL. Then `COc1cc2c(C(=O)O)c(C)n(C)c2c2ccccc12`, with 7.4 µg/mL (≈ 27.5 µM); and `CC(OC(=O)c1ccccc1O)C(=O)Nc1cccc(Cl)c1` (stereo unspecified), with 2 µg/mL (≈ 6.26 µM); and `CCN1C(=O)c2ccccc2Sc2ccc(C(=O)NC(C)C)cc21`, with 47.9 µg/mL (≈ 141 µM).

`CC(=O)Nc1cccc(OCC(=O)NCCC2=CCCCC2)c1` came in with a kinetic solubility of over 47.5 µg/mL. In the case of `O=Cc1c(NCc2cccc(F)c2)c2ccccc2[nH]c1=O` it was 19.8 µg/mL (≈ 66.8 µM); in that of `O=C(Nn1cnc2ccccc2c1=O)c1ccccc1F`, over 42.5 µg/mL. In the case of `N#CC1C=Cc2ccccc2N1C(=O)c1ccccc1` (stereo unspecified) it was 10.3 µg/mL (≈ 39.6 µM); in that of `O=c1[nH]c2ccc(S(=O)(=O)Nc3ccc(Cl)cc3)cc2o1`, over 48.7 µg/mL. `COc1ccc2oc3c(c2c1)NC(=O)CN=C3c1ccccc1`: the kinetic solubility was determined as 3.1 µg/mL (≈ 10.1 µM). In the case of `CN(C)C(=O)Oc1ccc2c(c1)O/C(=C\c1ccccc1)C2=O` it was 0.8 µg/mL (≈ 2.59 µM); in that of `N#Cc1cnc(SCC(=O)N2CCCC2)nc1N`, over 39.5 µg/mL. In the case of `COc1ccc2cc(S(=O)(=O)NCc3cccnc3)ccc2c1` it was 13.8 µg/mL (≈ 42 µM); in that of `COc1ccc(CNC(=O)c2cc3ccccc3oc2=O)cc1`, under 0.7 µg/mL. Then `CN1CCN(S(=O)(=O)c2ccc(Cl)cc2)CC1`, with 37.8 µg/mL (≈ 138 µM). With `CC(=O)N[C@@H](Cc1ccc(OC(F)(F)F)cc1)C(=O)O`, the solubility (kinetic) is over 43.7 µg/mL. For `COc1ccc(CCNC(=O)Cc2ccsc2)cc1`, the solubility (kinetic) is over 41.3 µg/mL. `O=C(Nc1scc(-c2ccccc2)c1C(=O)O)c1ccccc1Cl` came in with a kinetic solubility of 52.6 µg/mL (≈ 147 µM). Then `CC(=O)Nc1ccc(/C=C2\CCc3ccccc3C2=O)cc1`, with 1.2 µg/mL (≈ 4.12 µM); and `Cc1cc(C)n2nc(SCC(=O)Nc3ccccc3F)nc2n1`, with over 49.7 µg/mL. Then `O=C(Nc1nnc(-c2ccco2)o1)c1ccc(N2C(=O)CCC2=O)cc1`, with over 52.8 µg/mL; and `CCC(C)C(=O)Nc1ccc(S(=O)(=O)Nc2nccs2)cc1` (stereo unspecified), with over 50.9 µg/mL; and `O=C(Cc1c(F)cccc1Cl)NCCc1c[nH]c2ccccc12`, with 4.8 µg/mL (≈ 14.5 µM). Then `O=C(Nc1ccc(N2CCCC2)cc1)c1cccc(Cl)c1`, with under 0.3 µg/mL. `CC(C)c1ccc(OCc2ccc(C(=O)N(C)C)o2)cc1` had a solubility (kinetic) of 33.2 µg/mL (≈ 116 µM). In turn, `CS(=O)(=O)c1ccccc1C(=O)NC1CCCc2ccccc21` (stereo unspecified) displayed a solubility (kinetic) of over 49.4 µg/mL. In the case of `Cc1nc2ccc(NC(=O)c3ccc([N+](=O)[O-])cc3)cc2[nH]1` it was 30.6 µg/mL (≈ 103 µM); in that of `Cc1cc(N)c2ccccc2n1`, over 23.7 µg/mL; in that of `COc1cccc(N2CCN(C(=O)c3cc4cc(Cl)ccc4[nH]3)CC2)c1`, 11.8 µg/mL (≈ 31.9 µM). Then `CCN(C(=O)c1ccco1)c1nnc(-c2cccnc2)s1`, with over 45.1 µg/mL; and `CCn1c(SCc2ccc(F)cc2)nc2c(c1=O)SCC2`, with 0.9 µg/mL (≈ 2.79 µM); and `Cc1ccc(S(=O)(=O)N2CC(C(=O)O)Oc3ccccc32)cc1` (stereo unspecified), with over 50 µg/mL. `COc1ccccc1CCC(=O)Nc1nccs1` showed a solubility (kinetic) of 8.6 µg/mL (≈ 32.8 µM). `OCCN1CCN(C(c2cccs2)c2ccc3cccnc3c2O)CC1` (stereo unspecified) came in with a solubility (kinetic) of 44 µg/mL (≈ 119 µM). In the case of `Cc1nc(C)c(C(=O)OCC(=O)NCc2ccccc2)s1` it was over 45.7 µg/mL. In the case of `CC(CCN1CCOCC1)c1ccccc1` (stereo unspecified), the solubility (kinetic) was found to be 19.3 µg/mL (≈ 88 µM).

The term kinetic solubility denotes the concentration staying in solution when a stock, usually in DMSO, is diluted into the medium.
